Active and inactive are the calls of the source. No cut-off for these calls is given here.
Legend:
[1] = Metal chelating activity assessed as compound-Fe2+ complex formation at 25 uM after 30 mins by UV-spectrophotometric analysis; type: functional
Acetylcholinesterase = Acetylcholinesterase (Torpedo californica, UniProt P04058)
Description: Inhibition of Torpedo californica AChE using acetylthiocholine iodide as substrate preincubated for 5 mins followed by substrate addition measured at 1 min interval for 3 mins by Ellman's method

Cholinesterase = Cholinesterase (Equus caballus, UniProt P81908)
Description: Inhibition of equine serum BuChE using butyrylthiocholine iodide as substrate preincubated for 5 mins followed by substrate addition measured at 1 min interval for 3 mins by Ellmans method

[2] = Metal chelating activity assessed as compound-Cu2+ complex formation at 25 uM after 30 mins by UV spectrophotometric analysis; type: functional
PC-12 [3] = assay: Cytotoxicity against rat PC12 cells at 0.1 to 10 uM after 24 hrs by MTT assay; type: cell-based; conditions: pc-12, 24 h
PC-12 [4] = assay: Neuroprotective activity against Abeta42-induced toxicity in rat PC12 cells assessed as increase in cell viability after 24 hrs by MTT assay; type: functional, cell-based
PC-12 [5] = assay: Neuroprotective activity against H202-induced toxicity in rat PC12 cells assessed as increase in cell viability after 24 hrs by MTT assay; type: functional, cell-based
PC-12 [6] = assay: Neuroprotective activity against Abeta42-induced toxicity in rat PC12 cells assessed as increase in cell viability at 0.1 to 10 uM after 24 hrs by MTT assay; type: functional, cell-based
PC-12 [7] = assay: Neuroprotective activity against H202-induced toxicity in rat PC12 cells assessed as increase in cell viability at 0.1 to 10 uM after 24 hrs by MTT assay; type: functional, cell-based

Acetylcholinesterase, sequence (P04058 whole entry): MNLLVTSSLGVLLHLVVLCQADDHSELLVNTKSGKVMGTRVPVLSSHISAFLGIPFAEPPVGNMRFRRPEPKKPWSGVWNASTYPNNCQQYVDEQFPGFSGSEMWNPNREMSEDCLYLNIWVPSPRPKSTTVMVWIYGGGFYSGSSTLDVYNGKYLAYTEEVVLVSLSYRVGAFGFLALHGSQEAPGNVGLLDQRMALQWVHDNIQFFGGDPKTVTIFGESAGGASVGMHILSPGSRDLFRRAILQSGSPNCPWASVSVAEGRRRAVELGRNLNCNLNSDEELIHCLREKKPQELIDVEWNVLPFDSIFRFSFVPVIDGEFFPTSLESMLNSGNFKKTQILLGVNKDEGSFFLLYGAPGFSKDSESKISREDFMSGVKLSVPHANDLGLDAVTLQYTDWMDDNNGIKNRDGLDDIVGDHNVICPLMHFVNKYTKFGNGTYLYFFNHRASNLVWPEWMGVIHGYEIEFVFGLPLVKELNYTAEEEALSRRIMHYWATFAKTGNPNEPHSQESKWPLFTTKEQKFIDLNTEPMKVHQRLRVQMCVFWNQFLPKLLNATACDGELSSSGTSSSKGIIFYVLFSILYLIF
Cholinesterase, sequence (P81908 whole entry): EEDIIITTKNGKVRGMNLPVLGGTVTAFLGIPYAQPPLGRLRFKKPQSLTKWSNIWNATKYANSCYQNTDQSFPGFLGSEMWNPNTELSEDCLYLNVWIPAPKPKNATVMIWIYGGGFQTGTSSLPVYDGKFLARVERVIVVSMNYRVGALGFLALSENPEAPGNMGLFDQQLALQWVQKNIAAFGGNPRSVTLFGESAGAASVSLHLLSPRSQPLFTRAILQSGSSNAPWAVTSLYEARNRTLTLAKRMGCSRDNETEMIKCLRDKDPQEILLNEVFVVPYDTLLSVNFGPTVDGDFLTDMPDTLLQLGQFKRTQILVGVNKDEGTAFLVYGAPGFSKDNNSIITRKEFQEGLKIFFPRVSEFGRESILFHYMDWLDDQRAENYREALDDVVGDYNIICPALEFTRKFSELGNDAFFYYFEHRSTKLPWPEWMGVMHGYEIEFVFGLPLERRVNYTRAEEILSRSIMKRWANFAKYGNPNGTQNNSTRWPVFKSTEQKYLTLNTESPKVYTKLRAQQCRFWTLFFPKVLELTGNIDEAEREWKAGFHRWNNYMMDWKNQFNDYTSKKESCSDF

SMILES | IC50 (Acetylcholinesterase) [nM] | IC50 (Cholinesterase) [nM] | also measured
CC(=O)CC(=O)NCCCCNc1c2c(nc3ccccc13)CCCC2 | 90 | 160 | Activity [1]: Active; Activity [2]: Active
CC(=O)CC(=O)NCCCCCCNc1c2c(nc3ccccc13)CCCC2 | 570 | 220 | 
CC(=O)/C(=C\c1ccc(O)cc1)C(=O)NCCCCNc1c2c(nc3ccccc13)CCCC2 | 3800 | 4770 | 
COc1cc(/C=C(\C(C)=O)C(=O)NCCCCCCNc2c3c(nc4ccccc24)CCCC3)ccc1O | 290 | 1500 | Activity [1]: Active; Activity [2]: Active
COc1cc(/C=C(\C(C)=O)C(=O)NCCCNc2c3c(nc4ccccc24)CCCC3)ccc1O | 1260 | 1870 | 
CC(=O)/C(=C\c1ccc(O)cc1)C(=O)NCCCNc1c2c(nc3ccccc13)CCCC2 | 9640 | 1600 | 
CC(=O)/C(=C\c1ccc(O)cc1)C(=O)NCCCCCCNc1c2c(nc3ccccc13)CCCC2 | 2950 | 2240 | 
COc1cc(/C=C(\C(C)=O)C(=O)NCCCCNc2c3c(nc4ccccc24)CCCC3)ccc1O | 2100 | 2110 | 
CC(=O)CC(=O)NCCNc1c2c(nc3ccccc13)CCCC2 | 460 | 310 | 
COc1cc(CC(C(C)=O)C(=O)NCCCCCCNc2c3c(nc4ccccc24)CCCC3)ccc1O (stereo not drawn) | 80 | 220 | Activity (PC-12 [3]): Non-Toxic; Activity [1]: Active; Activity (PC-12 [4]): Dose-dependent effect; Activity [2]: Active; Activity (PC-12 [5]): Dose-dependent effect
CC(=O)C(Cc1ccc(O)cc1)C(=O)NCCCCNc1c2c(nc3ccccc13)CCCC2 (stereo not drawn) | 1990 | 390 | 
CC(=O)CC(=O)NCCCNc1c2c(nc3ccccc13)CCCC2 | 240 | 60 | 
COc1cc(CC(C(C)=O)C(=O)NCCCCNc2c3c(nc4ccccc24)CCCC3)ccc1O (stereo not drawn) | 3680 | 3380 | 
CC(=O)C(Cc1ccc(O)cc1)C(=O)NCCCNc1c2c(nc3ccccc13)CCCC2 (stereo not drawn) | 8760 | 830 | 
COc1cc(CC(C(C)=O)C(=O)NCCCNc2c3c(nc4ccccc24)CCCC3)ccc1O (stereo not drawn) | 5710 | 1310 | 
COc1cc(/C=C/C(=O)CC(=O)/C=C/c2ccc(O)c(OC)c2)ccc1O |  |  | Activity (PC-12 [6]): Active; Activity (PC-12 [7]): Active
CC(=O)C(Cc1ccc(O)cc1)C(=O)NCCCCCCNc1c2c(nc3ccccc13)CCCC2 (stereo not drawn) | 130 | 200 | 
